Laboratory results: patent publication US20260306641A1, “HELICASE DEGRADERS” (priority 2023, published 2026)

Tests used:
human Topoisomerase-II = assay: Topoisomerase II decatenation assay; format: biochemical
Procedure: The Topoisomerase II drug screening kit (kDNA-based; TopoGEN, TG1009-1A) was used to assess in vitro Topo II enzyme activity according to the manufacture protocol. Assays were performed in […] reactions with 4 μL of 5× Assay Buffer (0.25 M Tris-HCl (pH 8), 10 mM ATP, 0.75 M NaCl, 50 mM MgCl2, 2.5 mM Dithiothreitol, 150 mg/ml BSA), 1 mL kDNA ([…]), 1 mL DMSO solvent or compounds at indicated concentrations, 1 mL Topoisomerase II (2 Units), 13 mL water. Assays were incubated at 37° C. for 30 min and stopped by addition of 2 mL 10% SDS and Proteinase K (50 mg/ml). After incubating at 37° C. for 15 min, samples were mixed with 1/10 volume of loading buffer and resolved on a 1% agarose gel.

HaCaT cells = assay: BrdU labeling of DNA replication in synchronized HaCaT cells; format: cell-based, human; conditions: for DNA replication (BrdU), early G1 treatment: added at time 0, 15 μM; for DNA replication (BrdU), early S-phase treatment: treated at 18 hrs, analyzed 3 hrs later, CA1/novobiocin 15 μM, etoposide 5 μM
Procedure: Verification of synchronization and determination of drug effects was performed by measuring the incorporation of bromo-deoxyuridine (BrdU) into replicating foci within nuclei. At times indicated, cells were pulse-labeled with 15 μM BrdU for 30 min, fixed with 4% paraformaldehyde, and analyzed by standard immunofluorescent techniques(40,51) with an anti-BrdU monoclonal antibody (Roche, clone no. BMC9318, RRID:AB_2313622). The average counts of three fields of 100 or more cells were used to determine the percentages of BrdU-labeled nuclei, +/−1 s.d.

[1] = test system: T1, human CMG helicase (hCMG); assay: hCMG helicase fork-unwinding (strand displacement) assay; format: biochemical
T1 construct: made in house; host or cells: High Five insect cells, baculovirus (11 viruses co-infected)
T1 sequence (P49736 whole entry): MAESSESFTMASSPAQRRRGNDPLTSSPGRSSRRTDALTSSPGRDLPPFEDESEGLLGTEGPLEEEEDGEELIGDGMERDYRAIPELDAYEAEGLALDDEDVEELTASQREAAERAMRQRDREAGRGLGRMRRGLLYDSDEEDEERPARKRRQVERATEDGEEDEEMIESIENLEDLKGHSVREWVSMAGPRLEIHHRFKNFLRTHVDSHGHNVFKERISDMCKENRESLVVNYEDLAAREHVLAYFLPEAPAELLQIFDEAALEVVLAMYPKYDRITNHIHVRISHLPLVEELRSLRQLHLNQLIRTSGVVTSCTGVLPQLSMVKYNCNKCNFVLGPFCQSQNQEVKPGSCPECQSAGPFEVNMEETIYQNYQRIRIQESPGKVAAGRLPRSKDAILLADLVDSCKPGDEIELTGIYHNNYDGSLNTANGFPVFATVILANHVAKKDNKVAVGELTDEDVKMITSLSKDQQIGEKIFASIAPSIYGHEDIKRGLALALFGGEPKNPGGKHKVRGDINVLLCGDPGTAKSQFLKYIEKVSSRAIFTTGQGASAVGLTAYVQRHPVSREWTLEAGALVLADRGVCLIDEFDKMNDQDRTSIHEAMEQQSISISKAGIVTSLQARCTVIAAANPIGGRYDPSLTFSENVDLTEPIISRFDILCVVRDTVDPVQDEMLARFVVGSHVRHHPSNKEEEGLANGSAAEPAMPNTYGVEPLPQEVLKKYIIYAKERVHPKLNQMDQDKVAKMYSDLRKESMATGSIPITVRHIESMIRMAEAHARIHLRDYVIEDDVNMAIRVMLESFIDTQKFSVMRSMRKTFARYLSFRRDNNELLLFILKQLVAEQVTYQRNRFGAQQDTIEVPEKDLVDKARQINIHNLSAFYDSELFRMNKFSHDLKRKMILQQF
T1 sequence (P25205 whole entry, further chain): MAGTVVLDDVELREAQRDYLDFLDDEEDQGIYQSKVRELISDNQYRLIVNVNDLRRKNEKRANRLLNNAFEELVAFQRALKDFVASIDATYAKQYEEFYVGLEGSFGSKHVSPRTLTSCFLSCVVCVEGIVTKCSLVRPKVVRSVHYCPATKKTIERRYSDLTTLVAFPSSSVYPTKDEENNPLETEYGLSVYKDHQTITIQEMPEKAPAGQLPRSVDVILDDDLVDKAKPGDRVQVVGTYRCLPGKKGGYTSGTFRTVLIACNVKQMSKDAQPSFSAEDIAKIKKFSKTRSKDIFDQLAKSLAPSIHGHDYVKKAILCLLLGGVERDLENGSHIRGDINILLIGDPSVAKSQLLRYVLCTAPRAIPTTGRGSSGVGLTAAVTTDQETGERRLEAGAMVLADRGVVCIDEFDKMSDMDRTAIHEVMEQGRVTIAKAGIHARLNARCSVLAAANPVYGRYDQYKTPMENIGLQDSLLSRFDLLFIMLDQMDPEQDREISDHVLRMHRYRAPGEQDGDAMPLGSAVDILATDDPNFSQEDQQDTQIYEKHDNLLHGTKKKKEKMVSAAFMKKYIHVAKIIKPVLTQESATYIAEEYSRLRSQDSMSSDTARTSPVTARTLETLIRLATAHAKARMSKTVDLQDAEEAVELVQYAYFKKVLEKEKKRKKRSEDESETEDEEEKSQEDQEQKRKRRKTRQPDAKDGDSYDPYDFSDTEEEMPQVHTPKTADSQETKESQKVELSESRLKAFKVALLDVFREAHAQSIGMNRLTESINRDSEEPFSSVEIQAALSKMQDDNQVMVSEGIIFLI
T1 sequence (P33991 whole entry, further chain): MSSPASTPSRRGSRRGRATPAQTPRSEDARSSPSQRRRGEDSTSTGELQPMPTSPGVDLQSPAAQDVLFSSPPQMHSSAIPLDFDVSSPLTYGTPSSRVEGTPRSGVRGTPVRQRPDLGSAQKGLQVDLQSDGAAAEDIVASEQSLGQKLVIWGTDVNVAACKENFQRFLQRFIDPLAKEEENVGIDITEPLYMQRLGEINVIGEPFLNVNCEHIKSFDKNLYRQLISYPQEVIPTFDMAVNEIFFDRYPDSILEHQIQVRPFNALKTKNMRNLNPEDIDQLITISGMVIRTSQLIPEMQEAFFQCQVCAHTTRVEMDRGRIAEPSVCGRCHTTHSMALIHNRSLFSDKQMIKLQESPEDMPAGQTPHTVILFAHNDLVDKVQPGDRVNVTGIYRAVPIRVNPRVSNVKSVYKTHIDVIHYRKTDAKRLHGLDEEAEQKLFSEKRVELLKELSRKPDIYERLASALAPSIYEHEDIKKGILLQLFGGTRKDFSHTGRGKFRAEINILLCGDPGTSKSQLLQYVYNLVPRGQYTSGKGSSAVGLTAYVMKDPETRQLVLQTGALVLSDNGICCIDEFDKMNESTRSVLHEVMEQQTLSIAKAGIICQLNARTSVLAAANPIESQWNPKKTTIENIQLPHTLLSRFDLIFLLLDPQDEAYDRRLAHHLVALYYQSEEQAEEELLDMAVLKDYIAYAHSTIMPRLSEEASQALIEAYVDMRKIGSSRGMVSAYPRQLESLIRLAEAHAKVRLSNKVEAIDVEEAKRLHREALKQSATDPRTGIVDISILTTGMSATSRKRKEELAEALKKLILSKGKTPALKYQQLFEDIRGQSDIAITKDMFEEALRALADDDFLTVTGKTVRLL
T1 sequence (P33992 whole entry, further chain): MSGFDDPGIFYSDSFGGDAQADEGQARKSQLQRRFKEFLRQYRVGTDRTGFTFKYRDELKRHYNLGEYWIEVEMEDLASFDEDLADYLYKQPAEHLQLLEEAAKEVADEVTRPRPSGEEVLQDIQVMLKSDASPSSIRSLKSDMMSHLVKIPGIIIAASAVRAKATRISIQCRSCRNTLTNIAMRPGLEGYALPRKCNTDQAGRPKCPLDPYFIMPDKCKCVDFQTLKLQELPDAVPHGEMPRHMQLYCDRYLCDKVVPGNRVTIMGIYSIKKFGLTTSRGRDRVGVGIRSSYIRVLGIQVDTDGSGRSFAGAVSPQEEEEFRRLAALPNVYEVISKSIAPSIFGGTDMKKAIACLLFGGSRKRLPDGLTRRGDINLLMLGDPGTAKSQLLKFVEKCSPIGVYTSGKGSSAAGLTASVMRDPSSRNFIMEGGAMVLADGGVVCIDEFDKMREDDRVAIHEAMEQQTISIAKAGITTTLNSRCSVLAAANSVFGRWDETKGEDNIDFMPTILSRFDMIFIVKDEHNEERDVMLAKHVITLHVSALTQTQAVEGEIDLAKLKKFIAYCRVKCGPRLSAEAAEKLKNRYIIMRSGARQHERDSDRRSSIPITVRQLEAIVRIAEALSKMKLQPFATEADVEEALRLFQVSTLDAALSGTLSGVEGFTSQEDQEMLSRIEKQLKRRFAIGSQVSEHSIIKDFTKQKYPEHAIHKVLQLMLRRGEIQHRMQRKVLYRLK
T1 sequence (Q14566 whole entry, further chain): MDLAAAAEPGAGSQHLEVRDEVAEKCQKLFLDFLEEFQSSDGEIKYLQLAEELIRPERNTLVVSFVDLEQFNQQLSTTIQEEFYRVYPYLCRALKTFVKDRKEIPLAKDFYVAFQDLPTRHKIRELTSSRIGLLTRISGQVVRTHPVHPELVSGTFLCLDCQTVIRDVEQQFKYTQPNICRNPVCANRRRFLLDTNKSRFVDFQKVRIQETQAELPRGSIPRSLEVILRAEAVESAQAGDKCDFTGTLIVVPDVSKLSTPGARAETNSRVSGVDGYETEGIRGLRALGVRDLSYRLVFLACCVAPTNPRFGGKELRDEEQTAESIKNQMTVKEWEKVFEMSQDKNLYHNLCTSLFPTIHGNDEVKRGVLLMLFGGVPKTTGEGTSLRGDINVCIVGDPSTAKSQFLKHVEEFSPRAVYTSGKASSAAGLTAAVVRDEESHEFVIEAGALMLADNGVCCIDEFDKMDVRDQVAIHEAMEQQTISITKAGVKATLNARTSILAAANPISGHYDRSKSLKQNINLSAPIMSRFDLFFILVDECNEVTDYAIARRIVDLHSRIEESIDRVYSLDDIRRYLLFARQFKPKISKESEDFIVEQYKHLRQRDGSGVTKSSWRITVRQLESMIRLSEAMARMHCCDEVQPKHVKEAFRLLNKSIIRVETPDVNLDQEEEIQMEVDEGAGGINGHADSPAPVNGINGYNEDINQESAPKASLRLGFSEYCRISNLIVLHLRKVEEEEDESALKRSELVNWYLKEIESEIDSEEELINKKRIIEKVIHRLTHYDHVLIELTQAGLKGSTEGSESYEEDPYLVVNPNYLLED
T1 sequence (P33993 whole entry, further chain): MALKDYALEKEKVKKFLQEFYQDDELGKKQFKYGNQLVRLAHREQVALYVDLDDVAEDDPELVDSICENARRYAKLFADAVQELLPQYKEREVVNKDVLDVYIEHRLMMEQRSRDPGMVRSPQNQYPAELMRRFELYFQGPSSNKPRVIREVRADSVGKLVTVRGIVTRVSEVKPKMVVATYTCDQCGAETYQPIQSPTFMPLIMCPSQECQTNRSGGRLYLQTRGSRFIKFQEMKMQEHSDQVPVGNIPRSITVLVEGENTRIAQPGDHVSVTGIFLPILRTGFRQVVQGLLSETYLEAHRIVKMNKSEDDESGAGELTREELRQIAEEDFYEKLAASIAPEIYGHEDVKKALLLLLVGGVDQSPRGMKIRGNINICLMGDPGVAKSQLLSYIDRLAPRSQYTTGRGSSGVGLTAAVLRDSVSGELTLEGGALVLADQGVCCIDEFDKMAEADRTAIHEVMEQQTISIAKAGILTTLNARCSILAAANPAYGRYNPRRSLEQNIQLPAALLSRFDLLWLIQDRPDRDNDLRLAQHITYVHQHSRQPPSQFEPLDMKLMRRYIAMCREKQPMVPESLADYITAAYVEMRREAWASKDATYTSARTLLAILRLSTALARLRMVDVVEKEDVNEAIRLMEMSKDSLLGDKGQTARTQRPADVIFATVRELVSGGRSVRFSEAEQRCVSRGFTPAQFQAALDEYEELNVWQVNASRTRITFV
Procedure: The human CMG helicase was purified following the established and validated protocol of Hurwitz and colleagues(19,20), with minor modifications. A detailed description of the approach is shown here, to allow for comparisons to the methods described by the Hurwitz group.
High Five insect cells (2-3 million cells/ml, 1.5 L), were in cultured in a shaking incubator at 27° C. in suspension with ESF921 serum free medium (Expression Systems, CA; cat. #96-001-01), then co-infected for 60 hrs with 11 baculoviruses expressing human 6His2Flag-Cdc45, the human MCM hexamer (Mcm2, Mcm3, Mcm4, Mem5, Mcm6, Mcm7), and human GINS (GST-Sld5, Psf3, Psf2, and Psf1). Each virus was infected at an MOI of ~10 from individual virus stocks. Infected cells were harvested by centrifugation at 650×g for 5 min at 4° C., washed with cold PBS, frozen on dry ice, and stored at −80° C. until use. The cell pellet (~20 mL) was thawed on ice, resuspended in 45 ml Hypotonic Buffer [20 mM Hepes-NaOH (pH 7.5), 5 mM KCl, 1.5 mM MgCl2] with protease inhibitors (1 mM [COMPOUND LEFT OUT], 1 mM Benzamidine, 0.15 μM Aprotinin, 4 μM Leupeptin, and 1 μM Antipain), and kept on ice for 10 min before lysing by Dounce homogenization (tight fitting, 60 strokes). The cell extract was adjusted to 0.42 M potassium acetate and centrifuged at 43,000×g for 1 hr at 4° C. The cleared lysate was mixed with 0.75 ml glutathione beads (cat. #17-0756-05; GE Healthcare) pre-equilibrated with FEQ buffer [20 mM Hepes-NaOH (pH 7.5), 0.42 M potassium acetate, 5 mM KCl, 1.5 mM MgCl2] and incubated by rotation at 4° C. overnight. Following centrifugation at 290×g at 4° C., the bound glutathione beads were washed four times (15 min each wash) with 40 ml of FW buffer [20 mM Hepes-NaOH (pH 7.5), 0.42 M potassium acetate, 1 mM DTT, 1 mM EDTA, 0.01% NP40, 10% glycerol (vol/vol) with protease inhibitors as above] containing protease inhibitors (as above). Bound proteins were eluted at 4° C. three times (1 hr each elution) with 3.5 ml Q buffer [20 mM Hepes-NaOH (pH 7.5), 1 mM DTT, 1 mM EDTA, 0.01% NP40, 10% glycerol (vol/vol), and protease inhibitors as above] containing 0.15 M potassium acetate and 20 mM reduced glutathione. The eluted fractions were combined and applied to a HiTrap Q-Sepharose FF column (HiTrap Q FF 1 mL, cat. #17505301, Cytiva), pre-equilibrated 3× with 5 ml of Q buffer containing 0.15 M, 0.75 M, 0.15M potassium acetate, in sequence. The Q-Sepharose FF column was washed with 10 ml of FW buffer containing protease inhibitors (as above). The proteins were eluted with 10 ml of Q buffer containing 0.75 M potassium acetate. The eluted fraction was mixed with 0.15 ml of anti-Flag M2 affinity gel/beads and incubated while rotating at 4° C. overnight. After centrifugation at 290×g for 5 min at 4° C., the beads were washed three times with 10 ml PreScission buffer [50 mM Tris-HCl (pH 7.5), 0.15 M NaCl, 1 mM DTT, 1 mM EDTA] for 15 min at 4° C., and eluted at 4° C. three times (1 hr each elution) with 0.2 ml PreScission enzyme buffer containing 0.2 mg/ml 3×-Flag peptides. The combined eluates were incubated with 20 Units of PreScission Protease (GE Healthcare) and 0.1 mL glutathione beads for 4 hr at 4° C. The supernatant was layered onto a 15-40% glycerol gradient [25 mM Tris-HCl (pH 7.5), 50 mM NaCl, 1 mM DTT, 1 mM EDTA, 0.01% NP40, protease inhibitors as above] in a 5 mL ultra-centrifugation tube and centrifuged at 260,000×g for 14 hr at 4° C. Glycerol fractions (0.15 mL each fraction) were collected from bottom of tube and stored at −80° C. until use. Typically, fractions 6-9 contained complete hCMG (~750-800 kDa) and co-migrated with thyroglobulin.
Helicase fork-unwinding assays were performed at 37° C. for 1 hr in 20 μL reaction volumes using 2-4 μl of hCMG (~15-30 fmol), in a buffer consisting of 25 mM Hepes-NaOH (pH 7.5), 5 mM NaCl, 0.5 mM ATP, 10 mM magnesium acetate, 1 mM DTT, 0.1 mg/ml bovine serum albumin (BSA), and ~10 fmol of radiolabeled DNA forks (20). […]

Compound	human Topoisomerase-II inhibition (human Topoisomerase-II; 1 mM)	DNA replication (BrdU), early G1 treatment (HaCaT cells)	DNA replication (BrdU), early S-phase treatment (HaCaT cells)	inhibition of hCMG helicase activity, SAR set ([1]; 500 μM compound)	CA1 concentration required for human Topo-II inhibition relative to that required to block CMG activity (human Topoisomerase-II; decatenation assay in vitro)	human Topoisomerase-II inhibition (human Topoisomerase-II; low concentrations used in cell-based experiments)	DNA replication (BrdU), late-G1 treatment (HaCaT cells; treated at 12 hrs, assessed at 18 hrs)	hCMG helicase inhibition in secondary strand-displacement assay ([1]; 500 μM compound)	hCMG helicase activity inhibition ([1]; fork-unwinding, ~15 fmol hCMG, 0.5 mM ATP)	mode of inhibition of hCMG helicase activity ([1]; role: inhibitor, CA1 2.5 μM, increasing ATP)
CO[C@@H]1[C@@H](OC(N)=O)[C@@H](O)[C@H](Oc2ccc3c(O)c(NC(=O)c4ccc(O)c(CC=C(C)C)c4)c(=O)oc3c2C)OC1(C)C [novobiocin]	no effect at 1 mM	little effect	did not	only a small level of inhibition	–	–	–	–	–	–
CO[C@@H]1[C@@H](OC(=O)c2ccc(C)[nH]2)[C@@H](O)[C@H](Oc2ccc3c(O)c(NC(=O)c4c[nH]c(C(=O)Nc5c(O)c6ccc(O[C@@H]7OC(C)(C)[C@H](OC)[C@@H](OC(=O)c8ccc(C)[nH]8)[C@H]7O)c(C)c6oc5=O)c4C)c(=O)oc3c2C)OC1(C)C [CA1]	–	inhibits DNA replication	effectively suppressed DNA replication	potently inhibit the hCMG	~ 10 fold	no inhibitory effect on human Topoisomerase-II at low concentrations	fail to undergo DNA replication	effective hCMG helicase inhibitors	100%	classic ATP-competitive mechanism
